The conditions of data set [1]: 12-membered ring.
Another data set addresses human Factor XIa (Homo sapiens (Human), UniProt P03951). Nature of the data set: Factor XIa enzyme inhibition assay (chromogenic substrate S-2366). It counts as biochemical. Particulars: purified human Factor XIa 25-200 pM, substrate S-2366, 50 mM HEPES pH 7.4.
Where [2] appears, read: from C=CC[C@H](NC(=O)OC(C)(C)C)c1cc(-c2ccc(NC(=O)OC)cc2NC(=O)C(C=C)CC)ccn1, rcm bond, Grubbs II, microwave, DCE, 120.0 °C, 0.42 h.

Molecules are shown by their SMILES. Several values for one entry are separate records, joined by “and”; a condition that tells them apart may be missing. Equal values may be shown once. Read-outs that look alike come from different tables or passages of the source.

As a reminder, the Ki is the equilibrium dissociation constant of an inhibitor or competing ligand from its target. Low values mean higher affinity, high ones lower affinity.

Sequence of human Factor XIa (P03951 388-625): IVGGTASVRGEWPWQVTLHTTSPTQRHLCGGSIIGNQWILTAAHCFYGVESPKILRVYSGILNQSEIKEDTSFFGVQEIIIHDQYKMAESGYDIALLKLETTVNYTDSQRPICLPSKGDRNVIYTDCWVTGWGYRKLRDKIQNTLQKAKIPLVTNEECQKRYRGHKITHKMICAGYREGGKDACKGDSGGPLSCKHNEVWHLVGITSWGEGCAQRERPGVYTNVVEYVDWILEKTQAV
Sequence of human Factor XIa (P03951 19-387 partner): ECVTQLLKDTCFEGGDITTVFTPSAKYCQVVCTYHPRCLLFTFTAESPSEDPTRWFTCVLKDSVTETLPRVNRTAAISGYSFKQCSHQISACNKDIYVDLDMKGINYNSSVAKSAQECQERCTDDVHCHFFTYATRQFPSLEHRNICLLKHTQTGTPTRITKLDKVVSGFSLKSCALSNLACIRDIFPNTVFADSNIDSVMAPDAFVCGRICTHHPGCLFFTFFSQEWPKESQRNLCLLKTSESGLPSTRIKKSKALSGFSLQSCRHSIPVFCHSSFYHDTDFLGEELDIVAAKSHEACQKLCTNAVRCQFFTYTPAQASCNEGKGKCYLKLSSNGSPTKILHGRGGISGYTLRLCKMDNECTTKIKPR

`CCOC(=O)C1C/C=C/C[C@H](NC(=O)OC(C)(C)C)c2cc(ccn2)-c2ccc(NC(=O)OC)cc2N1` (some centres unmarked) returned a ring closure, isolated yield in data set [1] (from C=CCC(Nc1cc(NC(=O)OC)ccc1-c1ccnc([C@H](CC=C)NC(=O)OC(C)(C)C)c1)C(=O)OCC, rcm bond, Grubbs (as described before)) of 47%.

In the case of `COC(=O)Nc1ccc(-c2ccnc([C@H](CCCO)NC(=O)OC(C)(C)C)c2)c(N)c1`, in data set [1] (the molecule shown is the open-chain precursor, other bond, phosgene, then TEA/DMAP, DCM, 3.3 mM, 2 steps), the ring closure, isolated yield stood at 57%.

Take `COC(=O)Nc1ccc2c(c1)NC(=O)C(C)/C=C/C[C@H](NC(=O)OC(C)(C)C)c1cc-2nnc1Cl` (some centres unmarked): the ring closure, isolated yield in data set [1] (from C=CC[C@H](NC(=O)OC(C)(C)C)c1cc(-c2ccc(NC(=O)OC)cc2NC(=O)C(C)C=C)nnc1Cl, rcm bond, Grubbs II (0.4 eq), 1,2-dichloroethane, 4.7 mM, 120.0 °C, 0.5 h) came out at 22%.

For `COC(=O)Nc1ccc2c(c1)NC(=O)C(C)C=CC[C@H](NC(=O)OC(C)(C)C)c1cc-2cc(=O)[nH]1` (some centres unmarked), the ring closure, yield after HPLC (from C=CC[C@H](NC(=O)OC(C)(C)C)c1cc(-c2ccc(NC(=O)OC)cc2NC(=O)C(C)C=C)cc(=O)[nH]1, rcm bond, 12-membered ring, Grubbs II (0.4 eq), microwave, DCE, 18.0 mM, 120.0 °C, 0.5 h) was 19% and 35%.

Molecule `COC(=O)Nc1ccc2c(c1)NC(=O)C/C=C/C(C)[C@H](NC(=O)OC(C)(C)C)c1cc-2ccn1` (some centres unmarked) showed a ring closure, yield after HPLC (from C=CCC(=O)Nc1cc(NC(=O)OC)ccc1-c1ccnc([C@@H](NC(=O)OC(C)(C)C)C(C)C=C)c1, rcm bond, 12-membered ring, Grubbs II, toluene, 9.0 mM, 160.0 °C, 0.33 h) of 12%.

Regarding `COC(=O)Nc1ccc2c(c1)NC(=O)C/C=C/C[C@H](NC(=O)OC(C)(C)C)c1cc-2ccn1`, the ring closure, isolated yield in data set [1] (from C=CCC(=O)Nc1cc(NC(=O)OC)ccc1-c1ccnc([C@H](CC=C)NC(=O)OC(C)(C)C)c1, rcm bond, Grubbs II (0.4 eq)/pTsOH, DCM, 4.0 mM, 40.0 °C, 3.0 h) turned out to be 26%.

Molecule `COC(=O)Nc1ccc2c(c1)NC(=O)CC/C=C/C[C@H](NC(=O)OC(C)(C)C)c1cc-2cc(=O)[nH]1` returned a ring closure, yield after HPLC (from C=CCCC(=O)Nc1cc(NC(=O)OC)ccc1-c1cc([C@H](CC=C)NC(=O)OC(C)(C)C)[nH]c(=O)c1, rcm bond, 13-membered ring, Grubbs II, microwave, DCE, 18.9 mM, 120.0 °C, 0.5 h) of 26%.

`COC(=O)Nc1ccc2c(c1)NC(=O)CC/C=C/C[C@H](NC(=O)OC(C)(C)C)c1nc-2cn1COCC[Si](C)(C)C` showed a ring closure, yield after HPLC (from C=CCCC(=O)Nc1cc(NC(=O)OC)ccc1-c1cn(COCC[Si](C)(C)C)c([C@H](CC=CN)C(=O)OC(C)(C)C)n1, rcm bond, 13-membered ring) of 42%.

On to `COC(=O)Nc1ccc2c(c1)NC(=O)CCOC[C@H](NC(=O)OC(C)(C)C)c1nc-2cn1COCC[Si](C)(C)C`, for which, under “from COC(=O)Nc1ccc(-c2cn(COCC[Si](C)(C)C)c([C@H](COCCC(=O)O)NC(=O)OC(C)(C)C)n2)c(N)c1, amide bond, 12-membered ring, BOP/DMAP/DIEA, DMF, 1.0 mM, 25.0 °C, 16.0 h”, the ring closure, yield after HPLC is 75%.

Turning to `COC(=O)Nc1ccc2c(c1)NC(=O)COCC[C@H](NC(=O)OCc1ccccc1)c1cc-2ccn1`, the ring closure, yield after HPLC (from COC(=O)Nc1ccc(-c2ccnc([C@H](CCOCC(=O)O)NC(=O)OCc3ccccc3)c2)c(N)c1, amide bond, 12-membered ring, BOP/DMAP/DIEA, DCM/DMF, 2.8 mM, 25.0 °C, 6.0 h) was determined as 27%.

As to `COC(=O)Nc1ccc2c(c1)NC(=O)[C@H](C)/C=C/C[C@H](NC(=O)OC(C)(C)C)c1cc-2ccn1`, the ring closure, isolated yield in data set [1] (from C=CC[C@H](NC(=O)OC(C)(C)C)c1cc(-c2ccc(NC(=O)OC)cc2NC(=O)C(C)C=C)ccn1, rcm bond, Grubbs II (0.1 eq)/pTsOH, DCM, 4.0 mM, 40.0 °C, 6.0 h) is 25%; in data set [1] (from C=CC[C@H](NC(=O)OC(C)(C)C)c1cc(-c2ccc(NC(=O)OC)cc2NC(=O)[C@H](C)C=C)ccn1, rcm bond, Grubbs II (0.2 eq)/pTsOH, DCM, 11.8 mM, 4.0 h) it was 71%.

With `COC(=O)Nc1ccc2c(c1)NC(=O)[C@H](C)C=CC[C@H](NC(=O)OC(C)(C)C)c1nc-2cn1COCC[Si](C)(C)C`, in data set [1] (from C=CC[C@H](NC(=O)OC(C)(C)C)c1nc(-c2ccc(NC(=O)OC)cc2NC(=O)[C@H](C)C=C)cn1COCC[Si](C)(C)C, rcm bond, Grubbs II (0.4 eq)/pTsOH, DCM, 10.0 mM, 40.0 °C, 21.5 h), the ring closure, isolated yield was 41%.

Where the note is “from COC(=O)Nc1ccc(-c2cn(COCC[Si](C)(C)C)c([C@H](CCCC(C)C(=O)O)NC(=O)OC(C)(C)C)n2)c(N)c1, amide bond, 12-membered ring, BOP/DMAP/DIEA, DCM/DMF, 3.4 mM, 50.0 °C, 96.0 h”, `COC(=O)Nc1ccc2c(c1)NC(=O)[C@H](C)CCC[C@H](NC(=O)OC(C)(C)C)c1nc-2cn1COCC[Si](C)(C)C` registered a ring closure, yield after HPLC of 22%.

For `C[C@@H]1/C=C/C[C@H](NC(=O)OC(C)(C)C)c2cn(COCC[Si](C)(C)C)c(n2)-c2ccc([N+](=O)[O-])cc2NC1=O`, in data set [1] (from C=CC[C@H](NC(=O)OC(C)(C)C)c1cn(COCC[Si](C)(C)C)c(-c2ccc([N+](=O)[O-])cc2NC(=O)[C@H](C)C=C)n1, rcm bond, Grubbs II (0.287 mmol), DCM, 16.0 h), the ring closure, isolated yield worked out at 56%.

Regarding `CCC1/C=C/C[C@H](NC(=O)OC(C)(C)C)c2cc(ccn2)-c2ccc(NC(=O)OC)cc2NC1=O` (single isomer, unassigned; diastereomer a), the ring closure, isolated yield in data set [1] (setting [2]) is 10%.

In data set [1] (setting [2]), `CCC1/C=C/C[C@H](NC(=O)OC(C)(C)C)c2cc(ccn2)-c2ccc(NC(=O)OC)cc2NC1=O` (single isomer, unassigned; diastereomer b) came in with a ring closure, isolated yield of 16%.

Regarding `COC(=O)Nc1ccc2c(c1)NC(=O)[C@H](C)CCC[C@H](NC(=O)c1ncn(-c3cccc(Cl)c3F)c1C)c1cc-2cc(OC)n1` [Example 257], the Ki at human Factor XIa is less than 5 nM.

Take `COC(=O)Nc1ccc2c(c1)NC(=O)[C@H](C)CCC[C@H](NC(=O)c1cnn(-c3cccc(Cl)c3F)c1C)c1c[nH]c-2n1` [Example 262]: at human Factor XIa, affinity was put at a Ki of 13.6 nM.

Molecule `COC(=O)Nc1ccc2c(c1)NC(=O)[C@H](C)CCC[C@H](NC(=O)c1ncn(-c3cccc(Cl)c3F)c1C)c1c[nH]c-2n1` [Example 263] registered a Ki at human Factor XIa of 33.2 nM. This Ki is about 2.4-fold higher than that of the molecule before.
